This passage reports Ki results from ChEMBL document CHEMBL1125726 (J Med Chem, 1991).

Each structure is given as a SMILES string.

One test concerns the target D(2) dopamine receptor (Rattus norvegicus, UniProt P61169). Briefly: biochemical.
The next test concerns the target D(1A) dopamine receptor (Rattus norvegicus, UniProt P18901). Briefly: biochemical.

Chain of D(2) dopamine receptor (P61169 whole entry): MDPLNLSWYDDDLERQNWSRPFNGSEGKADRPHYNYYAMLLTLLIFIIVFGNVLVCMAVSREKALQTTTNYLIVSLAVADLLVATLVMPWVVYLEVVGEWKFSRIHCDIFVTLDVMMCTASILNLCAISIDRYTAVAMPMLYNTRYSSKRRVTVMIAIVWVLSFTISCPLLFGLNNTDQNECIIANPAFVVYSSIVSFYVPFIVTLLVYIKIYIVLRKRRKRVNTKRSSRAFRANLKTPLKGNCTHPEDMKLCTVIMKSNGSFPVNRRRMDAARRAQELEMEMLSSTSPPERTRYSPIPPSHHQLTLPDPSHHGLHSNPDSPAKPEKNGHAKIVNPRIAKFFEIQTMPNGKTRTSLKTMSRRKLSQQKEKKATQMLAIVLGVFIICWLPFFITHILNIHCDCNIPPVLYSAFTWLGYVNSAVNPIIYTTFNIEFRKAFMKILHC
Chain of D(1A) dopamine receptor (P18901 whole entry): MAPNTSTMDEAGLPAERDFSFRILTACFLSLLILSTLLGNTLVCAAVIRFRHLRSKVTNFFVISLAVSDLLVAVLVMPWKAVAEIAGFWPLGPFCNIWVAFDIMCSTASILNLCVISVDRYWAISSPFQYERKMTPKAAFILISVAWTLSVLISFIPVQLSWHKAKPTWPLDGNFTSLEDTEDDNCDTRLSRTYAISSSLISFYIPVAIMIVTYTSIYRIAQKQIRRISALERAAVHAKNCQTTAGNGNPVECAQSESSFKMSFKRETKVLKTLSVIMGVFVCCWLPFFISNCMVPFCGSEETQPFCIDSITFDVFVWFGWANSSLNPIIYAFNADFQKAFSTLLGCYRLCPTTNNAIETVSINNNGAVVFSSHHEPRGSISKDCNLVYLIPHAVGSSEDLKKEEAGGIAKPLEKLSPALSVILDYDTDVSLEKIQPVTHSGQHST
Description for D(1A) dopamine receptor: Compound was evaluated for its ability to inhibit dopamine receptor D1 in rat striatum using [3H]SCH-23390
Description for D(2) dopamine receptor: Compound was evaluated for its ability to inhibit dopamine receptor D2 in rat striatum using [3H]-spiperone

The Ki is the equilibrium dissociation constant of an inhibitor or competing ligand from its target. Lower therefore signals a stronger hold on the target. For `C=CCN1CCc2cccc3c2[C@H]1Cc1cccc(O)c1-3`, the results for the inhibition constant Ki at Dopamine receptor, on D(2) dopamine receptor and at D(1A) dopamine receptor were 0.034 nM, 2 nM and 452 nM, respectively.
On to `C=CCN1CCc2cccc3c2[C@@H]1Cc1cccc(O)c1-3`, for which the Ki at Dopamine receptor was 1595 nM; at D(2) dopamine receptor, 155 nM; on D(1A) dopamine receptor it was greater than 10000 nM.
